# According to US10392391B2 (Vertex Pharmaceuticals Incorporated, priority 2012, dated 2019):
# Target: ATR kinase (full-length ATR) (Homo sapiens (Human), UniProt Q13535)
# Assay: ATR inhibition assay (radioactive-phosphate incorporation)
# Assay type: biochemical
# Details: not given
# In short: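 Ki(app) was fitted by non-linear regression to background-corrected initial rates. Full-length ATR (5 nM) phosphorylated 800 μM peptide using 10 μM [γ-33P]ATP at 25° C in Tris/HCl pH 7.5 buffer with MgCl2, DTT and 7% DMSO. After 10-minute compound pre-incubation and 24-hour reaction, phosphocellulose filters were scintillation counted.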
# Chain of ATR kinase (full-length ATR) (Q13535 whole entry): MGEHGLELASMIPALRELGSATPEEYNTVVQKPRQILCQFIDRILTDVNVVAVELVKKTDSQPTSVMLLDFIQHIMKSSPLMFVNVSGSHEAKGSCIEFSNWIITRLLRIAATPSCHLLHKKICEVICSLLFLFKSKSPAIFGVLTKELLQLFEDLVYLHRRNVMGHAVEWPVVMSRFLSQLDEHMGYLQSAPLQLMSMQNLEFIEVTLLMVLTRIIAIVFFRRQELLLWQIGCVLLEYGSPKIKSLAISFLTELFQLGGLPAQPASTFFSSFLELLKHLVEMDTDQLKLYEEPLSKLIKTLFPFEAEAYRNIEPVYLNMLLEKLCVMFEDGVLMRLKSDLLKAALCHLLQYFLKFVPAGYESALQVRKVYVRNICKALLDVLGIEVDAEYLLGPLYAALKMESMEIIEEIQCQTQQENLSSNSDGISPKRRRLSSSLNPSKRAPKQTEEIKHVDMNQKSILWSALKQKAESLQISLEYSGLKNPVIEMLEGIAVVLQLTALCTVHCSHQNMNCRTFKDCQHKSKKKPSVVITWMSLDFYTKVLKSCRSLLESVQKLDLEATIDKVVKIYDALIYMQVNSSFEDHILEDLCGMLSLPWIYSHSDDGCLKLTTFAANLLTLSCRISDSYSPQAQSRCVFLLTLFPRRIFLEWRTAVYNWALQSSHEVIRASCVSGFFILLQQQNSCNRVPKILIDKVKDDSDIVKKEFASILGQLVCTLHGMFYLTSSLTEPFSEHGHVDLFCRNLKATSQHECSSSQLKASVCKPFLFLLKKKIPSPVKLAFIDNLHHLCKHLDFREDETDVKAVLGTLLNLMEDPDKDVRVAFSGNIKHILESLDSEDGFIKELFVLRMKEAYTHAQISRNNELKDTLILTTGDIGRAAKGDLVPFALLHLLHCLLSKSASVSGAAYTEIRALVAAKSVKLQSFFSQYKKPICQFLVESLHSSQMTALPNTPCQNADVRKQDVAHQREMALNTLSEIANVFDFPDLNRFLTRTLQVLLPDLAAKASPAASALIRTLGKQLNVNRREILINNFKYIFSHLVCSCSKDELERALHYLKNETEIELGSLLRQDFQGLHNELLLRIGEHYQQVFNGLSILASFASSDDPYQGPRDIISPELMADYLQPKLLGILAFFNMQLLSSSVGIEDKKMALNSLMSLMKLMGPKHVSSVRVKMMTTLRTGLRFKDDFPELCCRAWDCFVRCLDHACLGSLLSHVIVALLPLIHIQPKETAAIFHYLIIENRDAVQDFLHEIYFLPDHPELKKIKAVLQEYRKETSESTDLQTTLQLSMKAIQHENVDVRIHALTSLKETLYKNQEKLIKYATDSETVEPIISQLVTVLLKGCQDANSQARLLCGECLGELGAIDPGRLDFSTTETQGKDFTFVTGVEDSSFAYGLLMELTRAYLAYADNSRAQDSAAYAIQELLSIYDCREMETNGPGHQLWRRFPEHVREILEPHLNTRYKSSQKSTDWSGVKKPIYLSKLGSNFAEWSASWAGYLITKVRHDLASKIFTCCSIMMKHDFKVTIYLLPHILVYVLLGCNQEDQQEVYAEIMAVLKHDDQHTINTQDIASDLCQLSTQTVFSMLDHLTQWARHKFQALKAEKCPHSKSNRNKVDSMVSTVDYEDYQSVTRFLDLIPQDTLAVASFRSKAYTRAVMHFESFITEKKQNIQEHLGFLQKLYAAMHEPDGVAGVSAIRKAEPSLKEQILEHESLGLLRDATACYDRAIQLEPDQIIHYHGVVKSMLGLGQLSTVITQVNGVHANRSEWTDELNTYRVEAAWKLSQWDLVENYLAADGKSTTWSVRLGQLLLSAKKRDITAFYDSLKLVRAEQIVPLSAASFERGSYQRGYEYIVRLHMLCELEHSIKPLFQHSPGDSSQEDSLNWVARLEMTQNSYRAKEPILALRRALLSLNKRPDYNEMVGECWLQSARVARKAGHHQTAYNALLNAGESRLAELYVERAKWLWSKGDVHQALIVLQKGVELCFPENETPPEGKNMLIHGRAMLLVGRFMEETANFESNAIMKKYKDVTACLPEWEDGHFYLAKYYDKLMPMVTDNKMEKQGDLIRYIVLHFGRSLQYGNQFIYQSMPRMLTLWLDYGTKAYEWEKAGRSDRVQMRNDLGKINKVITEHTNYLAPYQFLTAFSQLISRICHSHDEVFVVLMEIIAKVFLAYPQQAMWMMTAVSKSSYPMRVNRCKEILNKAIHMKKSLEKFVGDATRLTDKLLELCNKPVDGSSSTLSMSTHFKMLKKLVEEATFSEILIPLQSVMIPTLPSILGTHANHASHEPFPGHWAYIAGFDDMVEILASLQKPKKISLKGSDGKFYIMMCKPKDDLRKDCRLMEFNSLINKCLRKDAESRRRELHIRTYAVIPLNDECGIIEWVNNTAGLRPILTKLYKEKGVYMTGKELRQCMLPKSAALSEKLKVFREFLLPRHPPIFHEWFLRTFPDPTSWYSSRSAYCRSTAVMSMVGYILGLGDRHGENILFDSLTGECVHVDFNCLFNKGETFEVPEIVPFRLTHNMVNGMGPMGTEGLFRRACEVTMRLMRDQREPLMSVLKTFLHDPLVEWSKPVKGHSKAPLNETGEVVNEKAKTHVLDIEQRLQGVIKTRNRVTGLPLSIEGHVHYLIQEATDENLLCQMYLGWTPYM
row,SMILES,Ki [µM]
1,"CN1CCN(C2CCN(c3c(F)cncc3NC(=O)c3c(N)nn4cc(F)cnc34)CC2)C(=O)C1 [I-N-151, 2-amino-6-fluoro-N-(5-fluoro-4-(4-(4-methyl-2-oxopiperazin-1-yl)piperidin-1-yl)pyridin-3-yl)pyrazolo[1,5-a]pyrimidine-3-carboxamide]",1 to 5
2,"Cn1ccc2cncc(NC(=O)c3c(N)nn4cc(F)cnc34)c21 [I-N-259, 2-amino-6-fluoro-N-(1-methyl-1H-pyrrolo[3,2-c]pyridin-7-yl)pyrazolo[1,5-a]pyrimidine-3-carboxamide]",1 to 5

# Same assay, conditions: Ki(app), 5 nM full-length ATR, 10 μM ATP, 25° C.
row,SMILES,Ki [µM]
1,"Nc1nn2cc(Cl)cnc2c1C(=O)Nc1cnccc1OC1CN2CCC1CC2 (stereo not shown) [I-O-62, 2-amino-6-chloro-N-(4-(quinuclidin-3-yloxy)pyridin-3-yl)pyrazolo[1,5-a]pyrimidine-3-carboxamide]",0.01 to 1
2,"Nc1nn2cc(F)cnc2c1C(=O)Nc1cncc(F)c1N1CCN(C(=O)C23CCN(CC2)CC3)CC1 [I-N-134, 2-amino-6-fluoro-N-(5-fluoro-4-(4-(quinuclidine-4-carbonyl)piperazin-1-yl)pyridin-3-yl)pyrazolo[1,5-a]pyrimidine-3-carboxamide]",0.01 to 1
3,"CN1CCC[C@@H]1COc1ccncc1NC(=O)c1c(N)nn2cc(Cl)cnc12 [I-O-49, (R)-2-amino-6-chloro-N-(4-((1-methylpyrrolidin-2-yl)methoxy)pyridin-3-yl)pyrazolo[1,5-a]pyrimidine-3-carboxamide]",0.01 to 1
4,"Cc1cc(C(=O)N2CCN(C)CC2)ccc1-c1ccncc1NC(=O)c1c(N)nn2cc(F)cnc12 [I-C-45, 2-amino-6-fluoro-N-(4-(2-methyl-4-(4-methylpiperazine-1-carbonyl)phenyl)pyridin-3-yl)pyrazolo[1,5-a]pyrimidine-3-carboxamide]",0.01 to 1
5,"CN1CCN(c2ccncc2NC(=O)c2c(N)nn3cc(F)cnc23)CC1=O [I-N-209, 2-amino-6-fluoro-N-(4-(4-methyl-3-oxopiperazin-1-yl)pyridin-3-yl)pyrazolo[1,5-a]pyrimidine-3-carboxamide]",0.01 to 1
6,"CC1(C)CCCN1c1ccncc1NC(=O)c1c(N)nn2cc(F)cnc12 [I-N-220, 2-amino-N-(4-(2,2-dimethylpyrrolidin-1-yl)pyridin-3-yl)-6-fluoropyrazolo[1,5-a]pyrimidine-3-carboxamide]",0.01 to 1
7,"Nc1nn2cc(Cl)cnc2c1C(=O)Nc1cnccc1N1CCCC(N)C1 (stereo not shown) [I-N-55, 2-amino-N-(4-(3-aminopiperidin-1-yl)pyridin-3-yl)-6-chloropyrazolo[1,5-a]pyrimidine-3-carboxamide]",0.01 to 1
8,"CN1CCC(Oc2ccncc2NC(=O)c2c(N)nn3cc(F)cnc23)CC1 [I-O-12, 2-amino-6-fluoro-N-(4-((1-methylpiperidin-4-yl)oxy)pyridin-3-yl)pyrazolo[1,5-a]pyrimidine-3-carboxamide]",0.01 to 1
9,"COC1CCN(c2ccncc2NC(=O)c2c(N)nn3cc(Cl)cnc23)CC1 [I-N-73, 2-amino-6-chloro-N-(4-(4-methoxypiperidin-1-yl)pyridin-3-yl)pyrazolo[1,5-a]pyrimidine-3-carboxamide]",0.01 to 1
10,"Nc1nn2cc(F)cnc2c1C(=O)Nc1cnccc1-c1ccccc1 [I-C-5, 2-amino-6-fluoro-N-(4-phenylpyridin-3-yl)pyrazolo[1,5-a]pyrimidine-3-carboxamide]",0.01 to 1
11,"Nc1nn2cc(Cl)cnc2c1C(=O)Nc1cnccc1N1CCC(N2CCn3ccnc3C2)CC1 [I-N-102, 2-amino-6-chloro-N-(4-(4-(5,6-dihydroimidazo[1,2-a]pyrazin-7(8H)-yl)piperidin-1-yl)pyridin-3-yl)pyrazolo[1,5-a]pyrimidine-3-carboxamide]",0.01 to 1
12,"COc1ccncc1NC(=O)c1c(N)nn2cc(Cl)cnc12 [I-O-57, 2-amino-6-chloro-N-(4-methoxypyridin-3-yl)pyrazolo[1,5-a]pyrimidine-3-carboxamide]",0.01 to 1
13,"CCC(C#N)c1cnc2c(C(=O)Nc3cnccc3OC)c(N)nn2c1 (stereo not shown) [I-O-20, 2-amino-6-(1-cyanopropyl)-N-(4-methoxypyridin-3-yl)pyrazolo[1,5-a]pyrimidine-3-carboxamide]",0.01 to 1
14,"CN1CCCC(Oc2ccncc2NC(=O)c2c(N)nn3cc(Cl)cnc23)C1 (stereo not shown) [I-O-51, 2-amino-6-chloro-N-(4-((1-methylpiperidin-3-yl)oxy)pyridin-3-yl)pyrazolo[1,5-a]pyrimidine-3-carboxamide]",0.01 to 1
15,"Nc1nn2cc(F)cnc2c1C(=O)Nc1cnccc1-c1ccnnc1 [I-C-26, 2-amino-6-fluoro-N-(4-(pyridazin-4-yl)pyridin-3-yl)pyrazolo[1,5-a]pyrimidine-3-carboxamide]",0.01 to 1
16,"Nc1nn2cc(F)cnc2c1C(=O)Nc1cnccc1-c1cncnc1 [I-C-28, 2-amino-6-fluoro-N-(4-(pyrimidin-5-yl)pyridin-3-yl)pyrazolo[1,5-a]pyrimidine-3-carboxamide]",0.01 to 1

# Further lines, results first:
row,Ki [µM],SMILES
1,0.01 to 1,"Nc1nn2cc(F)cnc2c1C(=O)Nc1cncc(F)c1N1CCC(S(=O)(=O)N2CCN3CCC2CC3)CC1 [I-N-273, N-(4-(4-(1,4-diazabicyclo[3.2.2]nonan-4-ylsulfonyl)piperidin-1-yl)-5-fluoropyridin-3-yl)-2-amino-6-fluoropyrazolo[1,5-a]pyrimidine-3-carboxamide]"
2,0.01 to 1,"CN(C)C(=O)C1CCN(c2ccncc2NC(=O)c2c(N)nn3cc(F)cnc23)CC1 [I-G-2, 2-amino-N-(4-(4-(dimethylcarbamoyl)piperidin-1-yl)pyridin-3-yl)-6-fluoropyrazolo[1,5-a]pyrimidine-3-carboxamide]"
3,0.01 to 1,"CN1CC(OC2CCN(c3ccncc3NC(=O)c3c(N)nn4cc(F)cnc34)CC2)C1 [I-N-164, 2-amino-6-fluoro-N-(4-(4-((1-methylazetidin-3-yl)oxy)piperidin-1-yl)pyridin-3-yl)pyrazolo[1,5-a]pyrimidine-3-carboxamide]"
4,0.01 to 1,"Nc1nn2cc(F)cnc2c1C(=O)Nc1cncc(F)c1N1CCN(C(=O)CN2CCC2)CC1 [I-N-160, 2-amino-N-(4-(4-(2-(azetidin-1-yl)acetyl)piperazin-1-yl)-5-fluoropyridin-3-yl)-6-fluoropyrazolo[1,5-a]pyrimidine-3-carboxamide]"
5,0.01 to 1,"CCN1CCN(c2ccncc2NC(=O)c2c(N)nn3cc(F)cnc23)CC1 [I-N-17, 2-amino-N-(4-(4-ethylpiperazin-1-yl)pyridin-3-yl)-6-fluoropyrazolo[1,5-a]pyrimidine-3-carboxamide]"
6,0.01 to 1,"Nc1nn2cc(F)cnc2c1C(=O)Nc1cncc(C2CC2)c1N1CCN([C@@H]2CCOC2)CC1 [I-N-119, (R)-2-amino-N-(5-cyclopropyl-4-(4-(tetrahydrofuran-3-yl)piperazin-1-yl)pyridin-3-yl)-6-fluoropyrazolo[1,5-a]pyrimidine-3-carboxamide]"
7,0.01 to 1,"COC1CN(C2CCN(c3ccncc3NC(=O)c3c(N)nn4cc(Cl)cnc34)CC2)C1 [I-N-107, 2-amino-6-chloro-N-(4-(4-(3-methoxyazetidin-1-yl)piperidin-1-yl)pyridin-3-yl)pyrazolo[1,5-a]pyrimidine-3-carboxamide]"
8,0.01 to 1,"CC(=O)N1CC2(CCN(c3ccncc3NC(=O)c3c(N)nn4cc(F)cnc34)CC2)C1 [I-N-251, N-(4-(2-acetyl-2,7-diazaspiro[3.5]nonan-7-yl)pyridin-3-yl)-2-amino-6-fluoropyrazolo[1,5-a]pyrimidine-3-carboxamide]"
9,0.01 to 1,"CN1CCN(c2c(Cl)cncc2NC(=O)c2c(N)nn3cc(F)cnc23)CC1 [I-N-85, 2-amino-N-(5-chloro-4-(4-methylpiperazin-1-yl)pyridin-3-yl)-6-fluoropyrazolo[1,5-a]pyrimidine-3-carboxamide]"
10,0.01 to 1,"CC(C)(O)CN1CCN(c2c(F)cncc2NC(=O)c2c(N)nn3cc(F)cnc23)CC1 [I-N-139, 2-amino-6-fluoro-N-(5-fluoro-4-(4-(2-hydroxy-2-methylpropyl)piperazin-1-yl)pyridin-3-yl)pyrazolo[1,5-a]pyrimidine-3-carboxamide]"
11,0.01 to 1,"Nc1nn2cc(F)cnc2c1C(=O)Nc1cnccc1N1CCN2CCOC[C@H]2C1 [I-N-116, (R)-2-amino-6-fluoro-N-(4-(hexahydropyrazino[2,1-c][1,4]oxazin-8(1H)-yl)pyridin-3-yl)pyrazolo[1,5-a]pyrimidine-3-carboxamide]"
12,0.01 to 1,"Nc1nn2cc(F)cnc2c1C(=O)Nc1cnccc1N1CCC(C(=O)N2CC3(CCO3)C2)CC1 [I-G-90, N-(4-(4-(1-oxa-6-azaspiro[3.3]heptane-6-carbonyl)piperidin-1-yl)pyridin-3-yl)-2-amino-6-fluoropyrazolo[1,5-a]pyrimidine-3-carboxamide]"
13,0.01 to 1,"Nc1nn2cc(F)cnc2c1C(=O)Nc1cncc(F)c1N1CCC(C(=O)N2CCN(C3CCC3)CC2)CC1 [I-G-35, 2-amino-N-(4-(4-(4-cyclobutylpiperazine-1-carbonyl)piperidin-1-yl)-5-fluoropyridin-3-yl)-6-fluoropyrazolo[1,5-a]pyrimidine-3-carboxamide]"
14,0.01 to 1,"Nc1nn2cc(F)cnc2c1C(=O)Nc1cncc(F)c1N1CCC(C(=O)N2CC(N3CCCC3)C2)CC1 [I-G-43, 2-amino-6-fluoro-N-(5-fluoro-4-(4-(3-(pyrrolidin-1-yl)azetidine-1-carbonyl)piperidin-1-yl)pyridin-3-yl)pyrazolo[1,5-a]pyrimidine-3-carboxamide]"
15,0.01 to 1,"CN1CCN(C(=O)C2CCN(c3c(F)cncc3NC(=O)c3c(N)nn4cc(F)cnc34)CC2)CC12CC2 [I-G-38, 2-amino-6-fluoro-N-(5-fluoro-4-(4-(4-methyl-4,7-diazaspiro[2.5]octane-7-carbonyl)piperidin-1-yl)pyridin-3-yl)pyrazolo[1,5-a]pyrimidine-3-carboxamide]"
16,0.01 to 1,"CN1CC(N2CCN(C(=O)C3CCN(c4c(F)cncc4NC(=O)c4c(N)nn5cc(F)cnc45)CC3)CC2)C1 [I-G-96, 2-amino-6-fluoro-N-(5-fluoro-4-(4-(4-(1-methylazetidin-3-yl)piperazine-1-carbonyl)piperidin-1-yl)pyridin-3-yl)pyrazolo[1,5-a]pyrimidine-3-carboxamide]"
